Measured values from patent US20260109732A1, “LIPID AMINES” (ModernaTX, Inc., priority 2021, published 2026).
Where a name gives a salt, the structure may show the parent alone.

Columns and labels:
[1] = tested on: HeLa cells; assay: Luciferase Protein Expression Assay in HeLa Cells; assay type: cell-based, Human; settings: LNPs encapsulating Luciferase mRNA, 25 ng per well, N=4 wells; 5 h serum-free then 24 h; ONE-Glo
Protocol: For HeLa studies evaluating luciferase protein expression, PEG-DMG-2K dissolved in a 20 mM TRIS buffer (pH 7.5) is added to the neutralized intermediate nanoparticle solution at a ratio of 1:6, bringing the solution to the final molar ratios of IL1:DSPC:cholesterol:PEG-DMG-2K of 48.5:11.1:38.9:1.5%. This nanoparticle formulation is then modified with lipid amines. In a typical example, nanoparticle formulation at a concentration of 0.18 mg/mL mRNA and a 0.56 mL volume is modified with lipid amine SA50 (467.2 nmol) prepared in buffer containing 20 mM TRIS, 14.3 mM sodium acetate, 32 g/L sucrose and 140 mM NaCl-pH 7.5 at a volumetric ratio of 1:1 of nanoparticle:buffer.
Lipid nanoparticle compositions were prepared in a manner analogous to that in example 2. To evaluate LNP cellular uptake and protein expression In Vitro, HeLa cells from ATCC.org (ATCC CCL-2) are used. The cells are cultured in complete Minimum Essential Medium (MVEM) and are plated in 96 well Cell Carrier Ultra plate with PDL coated surface (PerkinElmer) prior to running an experiment.
Cells were transfected with buffer control (PBS) or LNPs encapsulating Luciferase mRNA (25 ng per well; N=4 replicate wells) in serum-free MEM media. LNP transfected cells were incubated for 5 h, followed by media removal and supplementation with complete MEM media. Cells were further incubated in complete MEM media overnight (24 h). Following the 24 hr incubation, luciferase protein expression was measured using the ONE-Glo™ Luciferase Assay (Promega). Cells were lysed using 1× Passive Lysis Buffer (Cat. #E194A) for 10 min in a microplate mixer at room temperature. Luciferase in the supernatant was measured by adding Luciferase Assay Reagent (Cat. #E151A) containing luciferin. Bioluminescence was then immediately measured on a Synergy H1 plate reader (BioTek). The results shown in Table 3a show the Average Relative Light Units (RLU) of each sample tested.

[2] = tested on: HeLa cells; assay: CFTR Protein Expression Assay in HeLa Cells; assay type: cell-based, Human; settings: LNPs encapsulating CFTR mRNA, N=4 wells; 5 h serum-free then 24 h; immunofluorescence vs PBS control
How it was run: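 Readout is fold-change in per-cell CFTR immunofluorescence intensity (488 nm, confocal imaging) relative to PBS-treated cells, from 4 replicate wells. LNPs encapsulating CFTR mRNA were applied serum-free for 5 h, followed by 24 h in complete medium before PFA fixation.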

[3] = Encapsulation of mRNA nanoparticles with lipid amines using Ribogreen assay; assay type: physicochemical
How it was run: (§1)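 DLS gave size and PDI, and Ribogreen gave encapsulation, for luciferase- or CFTR-mRNA nanoparticles (N:P 4.93). Particles came from IL1/DSPC/cholesterol/PEG-DMG-2K mixed at pH 4, mRNA-loaded, neutralized with TRIS pH 8.12, and then treated with lipid amine SA50 in pH 7.5 buffer.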

[4] = Diameter and PDI from DLS measurements of mRNA nanoparticles with lipid amines; assay type: physicochemical
How it was run: as §1

[5] = CFTR mRNA nanoparticle with lipid amine
[6] = Luciferase mRNA nanoparticle modified with lipid amine

| Compound | Average Relative Light Units ± Standard Deviation [1] [Relative Light Units] | Average fold-change in CFTR signal intensity per cell compared to buffer control ± standard deviation [2] [fold-change] | % Encapsulation (Ribogreen) [3, 5] [%] | % Encapsulation (Ribogreen) [3, 6] [%] | Diameter (nm) [4, 5] [nm] | PDI [4, 5] | Diameter (nm) [4, 6] [nm] | PDI [4, 6] |
| --- | --- | --- | --- | --- | --- | --- | --- | --- |
| CC(C)CCC[C@@H](C)[C@H]1CC[C@H]2[C@@H]3CC=C4C[C@@H](OC(=O)CCC(=O)N(CCCN)CCCCCCCCN)CC[C@]4(C)[C@H]3CC[C@]12C [SA72, (3S,8S,9S,10R,13R,14S,17R)-10,13-Dimethyl-17-((R)-6-methylheptan-2-yl)-2,3,4,7,8,9,10,11,12,13,14,15,16,17-tetradecahydro-1H-cyclopenta[a]phenanthren-3-yl 4-((8-aminooctyl)(3-aminopropyl)amino)-4-oxobutanoate dihydrochloride] | 30826.5 ± 5913.2 | 6.6 ± 0.6 | 99.8 | 99.1 | 73.0 | 0.11 | 72 | 0.11 |
| CC[C@H](CC[C@@H](C)[C@H]1CC[C@H]2[C@@H]3CC=C4C[C@@H](OC(=O)N(CCCN)CCCCCCCCN)CC[C@]4(C)[C@H]3CC[C@]12C)C(C)C [SA69, (3S,8S,9S,10R,13R,14S,17R)-17-((2R,5R)-5-Ethyl-6-methylheptan-2-yl)-10,13-dimethyl-2,3,4,7,8,9,10,11,12,13,14,15,16,17-tetradecahydro-1H-cyclopenta[a]phenanthren-3-yl (8-aminooctyl)(3-aminopropyl)carbamate dihydrochloride] | 35256.9 ± 8309.9 | 5.3 ± 0.5 | 99.9 | 98.9 | 74.0 | 0.13 | 71 | 0.16 |
| CC(C)CCC[C@@H](C)[C@H]1CC[C@H]2[C@@H]3CC=C4C[C@@H](OC(=O)CCC(=O)N(CCCC(C)(C)N)CCC(C)(C)N)CC[C@]4(C)[C@H]3CC[C@]12C [SA166, (3S,8S,9S,10R,13R,14S,17R)-10,13-dimethyl-17-((R)-6-methylheptan-2-yl)-2,3,4,7,8,9,10,11,12,13,14,15,16,17-tetradecahydro-1H-cyclopenta[a]phenanthren-3-yl 4-((3-amino-3-methylbutyl)(4-amino-4-methylpentyl)amino)-4-oxobutanoate dihydrochloride] | 33377.3 ± 8879.8 | 15.6 ± 1.3 | 99.5 | 99.2 | 76.1 | 0.16 | 75 | 0.14 |
| CC(C)CCC[C@@H](C)[C@H]1CC[C@H]2[C@@H]3CC=C4C[C@@H](OC(=O)N(CCCN)CCCCCCCCN)CC[C@]4(C)[C@H]3CC[C@]12C [SA60, (3S,8S,9S,10R,13R,14S,17R)-10,13-Dimethyl-17-((R)-6-methylheptan-2-yl)-2,3,4,7,8,9,10,11,12,13,14,15,16,17-tetradecahydro-1H-cyclopenta[a]phenanthren-3-yl (8-aminooctyl)(3-aminopropyl)carbamate dihydrochloride] | 30508.5 ± 6869.7 | 10.7 ± 0.1 | 99.5 | 98.8 | 70.9 | 0.08 | 74 | 0.13 |
| CC[C@H](CC[C@@H](C)[C@H]1CC[C@H]2[C@@H]3CC=C4C[C@@H](OC(=O)CCCC(=O)N(CCCN)CCCCNCCCN)CC[C@]4(C)[C@H]3CC[C@]12C)C(C)C [SA117, (3S,8S,9S,10R,13R,14S,17R)-17-((2R,5R)-5-ethyl-6-methylheptan-2-yl)-10,13-dimethyl-2,3,4,7,8,9,10,11,12,13,14,15,16,17-tetradecahydro-1H-cyclopenta[a]phenanthren-3-yl 5-((3-aminopropyl)(4-((3-aminopropyl)amino)butyl)amino)-5-oxopentanoate trihydrochloride] | 10134.1 ± 3860.2 | 4.9 ± 1.2 | 98.6 | 99.7 | 94.7 | 0.17 | 77 | 0.28 |
| CC[C@H](CC[C@@H](C)[C@H]1CC[C@H]2[C@@H]3CC=C4C[C@@H](OC(=O)CCCC(=O)N(CCCCNCCC(C)(C)N)CCC(C)(C)N)CC[C@]4(C)[C@H]3CC[C@]12C)C(C)C.Cl.Cl.Cl [SA137, (3S,8S,9S,10R,13R,14S,17R)-17-((2R,5R)-5-ethyl-6-methylheptan-2-yl)-10,13-dimethyl-2,3,4,7,8,9,10,11,12,13,14,15,16,17-tetradecahydro-1H-cyclopenta[a]phenanthren-3-yl 5-((3-amino-3-methylbutyl)(4-((3-amino-3-methylbutyl)amino)butyl)amino)-5-oxopentanoate trihydrochloride] | 15239.8 ± 6248.1 | 14.0 ± 0.8 | 98.3 | 99.6 | 76.3 | 0.13 | 79 | 0.20 |
| CC(C)CCC[C@@H](C)[C@H]1CC[C@H]2[C@@H]3CC=C4C[C@@H](OC(=O)CCCCC(=O)N(CCCN)CCCCNCCCN)CC[C@]4(C)[C@H]3CC[C@]12C [SA89, (3S,8S,9S,10R,13R,14S,17R)-10,13-dimethyl-17-((R)-6-methylheptan-2-yl)-2,3,4,7,8,9,10,11,12,13,14,15,16,17-tetradecahydro-1H-cyclopenta[a]phenanthren-3-yl 6-((3-aminopropyl)(4-((3-aminopropyl)amino)butyl)amino)-6-oxohexanoate trihydrochloride] | 8209.2 ± 4138.5 | 3.7 ± 0.4 | 98.6 | 99.7 | 86.5 | 0.15 | 77 | 0.16 |
| CC(C)CCC[C@@H](C)[C@H]1CC[C@H]2[C@@H]3CC=C4C[C@@H](SSCCC(=O)N(CCCCNCCC(C)N)CCC(C)N)CC[C@]4(C)[C@H]3CC[C@]12C (stereo partly drawn) [SA171, N-(3-aminobutyl)-N-(4-((3-aminobutyl)amino)butyl)-3-(((3S,8S,9S,10R,13R,14S,17R)-10,13-dimethyl-17-((R)-6-methylheptan-2-yl)-2,3,4,7,8,9,10,11,12,13,14,15,16,17-tetradecahydro-1H-cyclopenta[a]phenanthren-3-yl)disulfaneyl)propanamide trihydrochloride] | 22232.4 ± 9084.1 | 18.9 ± 1.9 | 99.4 | 99.2 | 71.3 | 0.11 | 73 | 0.23 |
